Tested on: Staphylococcus aureus (ATCC 6538)
Test: Minimum concentration for total antimicrobial activity, AOAC method 955.15 (Phenol Coefficient Method) with minor modifications
Assay type: cell-based

Structure (SMILES) | antimicrobial activity (in words) | Minimal Concentration (minimum concentration for total antimicrobial activity, incorporated into composition F, contact time 10 minutes, turbidity after 72 hours at 37° C.)
Cc1ccc(C(C)C)cc1O [Carvacrol] | excellent antimicrobial activity | 0.07 v/v %
Cc1ccc(C(C)C)c(O)c1 [Thymol] | excellent antimicrobial activity | –

Reference: patent US9451763B2, “Disinfectant formulation” (Laboratoire M2, priority 2008, dated 2016)
